Laboratory results as given in publication PMC7979765, “trans-Translation inhibitors bind to a novel site on the ribosome and clear Neisseria gonorrhoeae in vivo” (Nature Communications, 2021).
pIC50: −log10 of the molar value. ≈ marks a conversion by molar mass, not a printed value. Where “and” joins values, the source holds several entries; their conditions need not be identical. Identical values can stand only once.

Assays:
HeLa cells [1] = experiment: Mammalian cell cytotoxicity (CC50); format: cell-based, human; settings: HeLa, replicates
Procedure: The half maximal cytotoxic concentration (CC50) of each compound against HeLa cells (ATCC CCL-2) was measured as previously described. […] The mean values for each biological replicate were averaged, and the CC50 was determined using a 4-parameter nonlinear curve fitting algorithm (GraphPad Prism). The average of the CC50s from two biological replicates was calculated and reported.

[2] = Liver microsome stability, murine; format: in vitro ADME, mouse; settings: murine liver microsomes; for Average MLMS t½: average of replicates; for MLMS t½: individual replicates
Procedure: To examine potential for first-pass metabolism of analogs in the liver, the stability of analogs in the presence of liver microsome preparations (Eurofins Discovery for human, dog and rat; Xenotech for mouse) was measured using the method of Kuhnz, et al.[50]. for murine studies and Oback for the dog, human and rat studies. The amount of parent compound remaining after incubation with microsomes in the presence of NADPH over a 30 min time range was measured using a reverse-phase liquid chromatography/mass spectroscopy method that was customized for each compound. Half-lives were calculated using linear regression analysis of several time points.

[3] = Aqueous solubility (nephelometric); format: physicochemical; settings: for Solubility: single replicates
HeLa cells [4] = experiment: Mammalian cell cytotoxicity (CC50); format: cell-based, human; settings: one value per replicate
Escherichia coli = experiment: microbe, parasite or virus in culture; format: cell-based; settings: E. coli KLE701 (ΔtolC::tet); source data, individual replicates
Neisseria gonorrhoeae = experiment: MIC, microbroth dilution, G77L medium; format: cell-based; settings: Neisseria gonorrhoeae ATCC 49226; source data, individual replicates
trans-translation = experiment: microbe, parasite or virus in culture; format: cell-based, Escherichia coli; settings: Eco Luc reporter, one value per replicate; read-out: IC50
Procedure: To verify that MBX-4132 retains activity as an inhibitor of trans-translation, we measured its dose-dependent activity against the non-stop luciferase reporter assay strain E. coli SB75 ΔtolC::kan (pluc-trpAt) essentially as described, with modifications. Briefly, serial 1.5-fold dilutions of MBX-4132 in DMSO were transferred to 96-well assay plates (Costar 3195), followed by the addition of 50 µl of an overnight culture of SB75 ΔtolC::kan (pluc-trpAt) that had been diluted to a final OD600 of 0.4 with LB media supplemented with 100 µg ampicillin/ml and 1 mM IPTG. […] The assay plates were incubated at room temperature for 2 h, and 50 µl of BrightGlo (Promega) bioluminescence reagent was added to each well. After 10 min incubation, bioluminescence intensity was measured using an Envision multi-label plate reader (Perkin Elmer). Each assay comprised three technical replicates, and the experiment was repeated three times. The fold induction for each MBX-4132 treated sample as compared to the DMSO-only sample was calculated for each technical replicate, and the average and standard deviation of the three technical was calculated. The IC50 was determined using a 4-parameter nonlinear curve fitting algorithm (GraphPad Prism).

Row | Structure (SMILES) | NORMALIZED DATA (Fraction DMSO Control) (HeLa cells [1]; [CMPD] 0.78125 µM) | NORMALIZED DATA (Fraction DMSO Control) (HeLa cells [1]; [CMPD] 1.5625 µM) | NORMALIZED DATA (Fraction DMSO Control) (HeLa cells [1]; [CMPD] 3.125 µM) | NORMALIZED DATA (Fraction DMSO Control) (HeLa cells [1]; [CMPD] 6.25 µM) | NORMALIZED DATA (Fraction DMSO Control) (HeLa cells [1]; [CMPD] 12.5 µM) | NORMALIZED DATA (Fraction DMSO Control) (HeLa cells [1]; [CMPD] 25 µM) | NORMALIZED DATA (Fraction DMSO Control) (HeLa cells [1]; [CMPD] 50 µM) | NORMALIZED DATA (Fraction DMSO Control) (HeLa cells [1]; [CMPD] 100 µM) | Average MLMS t½ [2] | MLMS t½ [2] | Average solubility [3] | Solubility [3] | CC50 (HeLa cells [4]) | MIC (Escherichia coli) | MIC (Neisseria gonorrhoeae) | further results
1 | O=C(Nc1nnc(-c2ccc(F)cc2)o1)N1CCCCC1 [MBX-4699] | 1.206 Fraction DMSO Control and 0.9471 Fraction DMSO Control and 1 Fraction DMSO Control | 1.141 Fraction DMSO Control and 0.9447 Fraction DMSO Control and 0.9657 Fraction DMSO Control | 1.163 Fraction DMSO Control and 1.061 Fraction DMSO Control and 1.0891 Fraction DMSO Control | 1.089 Fraction DMSO Control and 1.109 Fraction DMSO Control and 1.081 Fraction DMSO Control | 0.7963 Fraction DMSO Control and 0.7071 Fraction DMSO Control and 0.8639 Fraction DMSO Control | 0.8798 Fraction DMSO Control and 0.8258 Fraction DMSO Control and 0.8774 Fraction DMSO Control | 0.9431 Fraction DMSO Control and 0.7958 Fraction DMSO Control and 0.7843 Fraction DMSO Control | 0.7918 Fraction DMSO Control and 0.6844 Fraction DMSO Control and 0.6971 Fraction DMSO Control | 12 min | 10.1 min and 13.2 min | 50 µM | 50 µM (≈ 14.5 µg/mL) | ≥ 100 µM | 7.257 µg/mL (≈ 25 µM) | 0.9072 µg/mL (≈ 3.13 µM) | –
2 | O=C(Nc1nnc(-c2ccccc2)o1)c1ccc(Cl)cc1 [MBX-3910] | 1.08 Fraction DMSO Control and 1.097 Fraction DMSO Control and 1.14 Fraction DMSO Control and 1.04 Fraction DMSO Control and 1.054 Fraction DMSO Control and 1.05 Fraction DMSO Control | 1.101 Fraction DMSO Control and 1.0991 Fraction DMSO Control and 1.152 Fraction DMSO Control and 1.073 Fraction DMSO Control and 1.065 Fraction DMSO Control and 1.0674 Fraction DMSO Control | 1.088 Fraction DMSO Control and 1.064 Fraction DMSO Control and 1.13 Fraction DMSO Control and 1.029 Fraction DMSO Control and 1.037 Fraction DMSO Control and 1.067 Fraction DMSO Control | 1.079 Fraction DMSO Control (2×) and 1.139 Fraction DMSO Control and 1.051 Fraction DMSO Control and 1.03 Fraction DMSO Control and 1.024 Fraction DMSO Control | 1.036 Fraction DMSO Control and 1.056 Fraction DMSO Control and 1.0972 Fraction DMSO Control and 1.011 Fraction DMSO Control and 0.9941 Fraction DMSO Control and 0.9999 Fraction DMSO Control | 0.7722 Fraction DMSO Control and 0.7686 Fraction DMSO Control and 0.9894 Fraction DMSO Control and 0.8554 Fraction DMSO Control and 0.8395 Fraction DMSO Control and 0.8785 Fraction DMSO Control | 0.4225 Fraction DMSO Control and 0.4189 Fraction DMSO Control and 0.8248 Fraction DMSO Control and 0.6289 Fraction DMSO Control and 0.6212 Fraction DMSO Control and 0.6018 Fraction DMSO Control | 0.1921 Fraction DMSO Control and 0.2466 Fraction DMSO Control and 0.6012 Fraction DMSO Control and 0.4687 Fraction DMSO Control and 0.4717 Fraction DMSO Control and 0.4092 Fraction DMSO Control | 5 min | 5 min | 12.5 µM | 12.5 µM (≈ 3.75 µg/mL) | 42.1 µM and 40.9 µM and > 100 µM and 36.7 µM and 35.8 µM and 41 µM | 0.9366 µg/mL (≈ 3.12 µM) | 0.2341 µg/mL and 0.1172 µg/mL | –
3 | CN(C(=O)c1ccc(Cl)cc1)c1nnc(-c2ccc(F)cc2)o1 [MBX-4076] | – | – | – | – | – | – | – | – | – | – | <3.1 µM | 3.1 µM and <3.1 µM (2×) | ≥ 100 µM | 8.293 µg/mL and 4.147 µg/mL and 2.073 µg/mL | 2.073 µg/mL (≈ 6.25 µM) | […] (Fraction DMSO Control) (HeLa cells [1]; [CMPD] 0.78125 µM): 1.197 Fraction DMSO Control and 0.943 Fraction DMSO Control and 1.027 Fraction DMSO Control; […] (Fraction DMSO Control) (HeLa cells [1]; [CMPD] 1.5625 µM): 1.13 Fraction DMSO Control and 0.9796 Fraction DMSO Control and 1.003 Fraction DMSO Control; […] (Fraction DMSO Control) (HeLa cells [1]; [CMPD] 3.125 µM): 1.12 Fraction DMSO Control and 0.9889 Fraction DMSO Control and 1.051 Fraction DMSO Control; […] (Fraction DMSO Control) (HeLa cells [1]; [CMPD] 6.25 µM): 1.086 Fraction DMSO Control and 0.9295 Fraction DMSO Control and 1.003 Fraction DMSO Control; […] (Fraction DMSO Control) (HeLa cells [1]; [CMPD] 12.5 µM): 1.084 Fraction DMSO Control and 0.9742 Fraction DMSO Control and 1.016 Fraction DMSO Control; […] (Fraction DMSO Control) (HeLa cells [1]; [CMPD] 25 µM): 1.061 Fraction DMSO Control and 0.9434 Fraction DMSO Control and 0.9966 Fraction DMSO Control; […] (Fraction DMSO Control) (HeLa cells [1]; [CMPD] 50 µM): 1.042 Fraction DMSO Control and 0.8579 Fraction DMSO Control and 0.8811 Fraction DMSO Control; […] (Fraction DMSO Control) (HeLa cells [1]; [CMPD] 100 µM): 0.7388 Fraction DMSO Control and 0.6179 Fraction DMSO Control and 0.6661 Fraction DMSO Control
4 | O=C(Nc1nnco1)c1ccc(Cl)cc1 [MBX-4367] | 1.189 Fraction DMSO Control and 0.9321 Fraction DMSO Control and 1.018 Fraction DMSO Control | 1.137 Fraction DMSO Control and 0.9966 Fraction DMSO Control and 1.019 Fraction DMSO Control | 1.148 Fraction DMSO Control and 1.015 Fraction DMSO Control and 1.071 Fraction DMSO Control | 1.124 Fraction DMSO Control and 0.9955 Fraction DMSO Control and 1.053 Fraction DMSO Control | 1.13 Fraction DMSO Control and 1.055 Fraction DMSO Control and 1.044 Fraction DMSO Control | 1.072 Fraction DMSO Control and 0.9837 Fraction DMSO Control and 1.014 Fraction DMSO Control | 1.146 Fraction DMSO Control and 0.9608 Fraction DMSO Control and 0.9961 Fraction DMSO Control | 0.9043 Fraction DMSO Control and 0.7595 Fraction DMSO Control and 0.7474 Fraction DMSO Control | <5 min | <5 min | – | – | ≥ 100 µM | 22.362 µg/ml and >=22.362 µg/ml | 11.181 µg/mL (≈ 50 µM) | pIC50 (trans-translation): ≤ 4.60
5 | O=C(Nc1nnc(-c2ccc(F)cc2)o1)c1ccccc1 [MBXC-4227] | 0.9526 Fraction DMSO Control and 0.9482 Fraction DMSO Control and 0.9778 Fraction DMSO Control and 0.9357 Fraction DMSO Control and 0.9509 Fraction DMSO Control and 0.9608 Fraction DMSO Control | 0.9867 Fraction DMSO Control and 1.034 Fraction DMSO Control and 1.028 Fraction DMSO Control and 0.9667 Fraction DMSO Control and 0.9674 Fraction DMSO Control and 0.99 Fraction DMSO Control | 1.005 Fraction DMSO Control and 1.004 Fraction DMSO Control and 0.9736 Fraction DMSO Control and 0.9997 Fraction DMSO Control and 1.016 Fraction DMSO Control and 1.006 Fraction DMSO Control | 0.9644 Fraction DMSO Control and 0.9925 Fraction DMSO Control and 0.9938 Fraction DMSO Control and 0.9804 Fraction DMSO Control and 0.9921 Fraction DMSO Control and 0.9636 Fraction DMSO Control | 0.8938 Fraction DMSO Control and 0.856 Fraction DMSO Control and 0.8425 Fraction DMSO Control and 0.8596 Fraction DMSO Control and 0.8611 Fraction DMSO Control and 0.8593 Fraction DMSO Control | 0.9039 Fraction DMSO Control and 0.9304 Fraction DMSO Control and 0.9129 Fraction DMSO Control and 0.9236 Fraction DMSO Control and 0.9122 Fraction DMSO Control and 0.9801 Fraction DMSO Control | 0.7944 Fraction DMSO Control and 0.8334 Fraction DMSO Control and 0.7734 Fraction DMSO Control and 0.7887 Fraction DMSO Control and 0.7582 Fraction DMSO Control and 0.8061 Fraction DMSO Control | 0.6978 Fraction DMSO Control and 0.688 Fraction DMSO Control and 0.6756 Fraction DMSO Control and 0.7089 Fraction DMSO Control and 0.7199 Fraction DMSO Control and 0.7396 Fraction DMSO Control | – | – | – | – | ≥ 100 µM | – | – | –
